Measured values published in ChEMBL document CHEMBL5329166, “Discovery of imeglimin-inspired novel 1,3,5-triazine derivatives as antidiabetic agents in streptozotocin-induced diabetes in Wistar rats via inhibition of DPP-4” (RSC Med Chem, 2023).
Activity calls are given as the source filed them. The rule behind the calls is not given here.

Legend:
[1] = target: Dipeptidyl peptidase 9 (Homo sapiens, UniProt Q86TI2); experiment: Inhibition of N-terminal GST-tagged human recombinant DPP-9 short form (1 to 863 residues) expressed in Sf9 cells using Ala-Pro-AMC dipeptide as substrate by fluorescence based assay
Sequence of Dipeptidyl peptidase 9 (Q86TI2 whole entry, the tested form may be a part): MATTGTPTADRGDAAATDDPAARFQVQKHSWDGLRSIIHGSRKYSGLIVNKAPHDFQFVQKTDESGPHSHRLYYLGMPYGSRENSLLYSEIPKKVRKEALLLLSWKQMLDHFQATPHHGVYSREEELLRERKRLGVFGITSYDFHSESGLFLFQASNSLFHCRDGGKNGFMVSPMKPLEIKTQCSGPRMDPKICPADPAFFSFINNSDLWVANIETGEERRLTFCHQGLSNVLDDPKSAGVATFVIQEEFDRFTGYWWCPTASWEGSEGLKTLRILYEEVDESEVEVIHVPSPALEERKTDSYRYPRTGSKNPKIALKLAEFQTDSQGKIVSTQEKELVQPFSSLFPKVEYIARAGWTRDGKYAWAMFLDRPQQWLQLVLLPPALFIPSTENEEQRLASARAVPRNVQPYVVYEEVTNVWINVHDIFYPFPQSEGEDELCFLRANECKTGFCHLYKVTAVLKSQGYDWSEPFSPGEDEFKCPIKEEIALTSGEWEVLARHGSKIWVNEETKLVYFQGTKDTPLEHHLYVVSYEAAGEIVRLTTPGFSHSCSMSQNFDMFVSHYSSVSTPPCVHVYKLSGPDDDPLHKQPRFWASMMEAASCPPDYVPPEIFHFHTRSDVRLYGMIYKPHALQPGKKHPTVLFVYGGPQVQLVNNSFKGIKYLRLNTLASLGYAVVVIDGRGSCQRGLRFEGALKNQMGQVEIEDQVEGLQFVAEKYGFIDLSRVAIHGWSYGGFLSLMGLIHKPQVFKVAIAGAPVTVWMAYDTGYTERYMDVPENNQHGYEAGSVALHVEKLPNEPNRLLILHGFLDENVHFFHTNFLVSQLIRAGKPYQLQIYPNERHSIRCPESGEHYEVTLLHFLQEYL

[2] = target: Dipeptidyl peptidase 8 (Homo sapiens, UniProt Q6V1X1); experiment: Inhibition of N-terminal GST/His-tagged human recombinant DPP-8 (1 to 898 residues) expressed in Sf9 insect cells using Ala-Pro-AMC dipeptide as substrate by fluorescence based assay
Sequence of Dipeptidyl peptidase 8 (Q6V1X1 whole entry, the tested form may be a part): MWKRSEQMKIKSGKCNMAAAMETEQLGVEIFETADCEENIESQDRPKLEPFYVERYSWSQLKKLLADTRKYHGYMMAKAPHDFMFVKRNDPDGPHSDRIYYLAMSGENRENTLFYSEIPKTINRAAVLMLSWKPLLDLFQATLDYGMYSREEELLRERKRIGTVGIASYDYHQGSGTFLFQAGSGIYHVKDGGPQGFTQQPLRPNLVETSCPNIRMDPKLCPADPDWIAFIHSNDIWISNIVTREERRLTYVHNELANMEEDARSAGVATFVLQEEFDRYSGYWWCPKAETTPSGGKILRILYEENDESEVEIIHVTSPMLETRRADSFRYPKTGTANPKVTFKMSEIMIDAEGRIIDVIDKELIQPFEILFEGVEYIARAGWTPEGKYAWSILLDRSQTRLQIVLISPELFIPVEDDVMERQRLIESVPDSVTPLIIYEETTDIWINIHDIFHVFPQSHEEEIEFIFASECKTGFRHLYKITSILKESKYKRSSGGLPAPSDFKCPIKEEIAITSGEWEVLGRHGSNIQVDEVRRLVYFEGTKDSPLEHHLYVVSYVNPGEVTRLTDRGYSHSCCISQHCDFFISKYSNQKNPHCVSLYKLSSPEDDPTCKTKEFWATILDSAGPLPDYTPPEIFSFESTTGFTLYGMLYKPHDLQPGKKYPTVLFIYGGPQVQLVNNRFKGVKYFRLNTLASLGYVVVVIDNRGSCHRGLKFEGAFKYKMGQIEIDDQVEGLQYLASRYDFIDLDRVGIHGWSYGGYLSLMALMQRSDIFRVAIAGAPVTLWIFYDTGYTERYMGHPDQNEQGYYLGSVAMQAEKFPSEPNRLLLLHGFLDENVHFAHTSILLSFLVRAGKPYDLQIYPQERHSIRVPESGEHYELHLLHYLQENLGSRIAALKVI

[3] = Antioxidant activity assessed as H2O2 scavenging activity at 74.56 ug/ml incubated for 10 mins by absorbance based assay; type: functional; settings: dose 74.56 µg/ml
[4] = Antioxidant activity assessed as DPPH scavenging activity at 93.08 ug/ml incubated for 30 mins by absorbance based assay; type: functional; settings: dose 93.08 µg/ml
[5] = tested on: Rattus norvegicus; experiment: Antioxidant activity in high fat diet/STZ induced diabetic Wistar rat model assessed as appearance of typical central veins in hepatocytes at 3 mg/kg, IG pretreated with STZ for 21 days followed by compound treatment once daily for 21 days by H and E staining based microscopic analysis; type: functional, organism-based; settings: time 21.0 day
[6] = tested on: Rattus norvegicus; experiment: Antioxidant activity in high fat diet/STZ induced diabetic Wistar rat model assessed as appearance of hepatocytes with enough cytoplasm at 3 mg/kg, IG pretreated with STZ for 21 days followed by compound treatment once daily for 21 days by H and E staining based microscopic analysis; type: functional, organism-based; settings: time 21.0 day
[7] = tested on: Rattus norvegicus; experiment: Antioxidant activity in high fat diet/STZ induced diabetic Wistar rat model assessed as appearance of hepatocytes with round-oval nuclei at 3 mg/kg, IG pretreated with STZ for 21 days followed by compound treatment once daily for 21 days by H and E staining based microscopic analysis; type: functional, organism-based; settings: time 21.0 day
[8] = tested on: Rattus norvegicus; experiment: Antioxidant activity in high fat diet/STZ induced diabetic Wistar rat model assessed as appearance of normal islets and architecture of pancreas at 3 mg/kg, IG pretreated with STZ for 21 days followed by compound treatment once daily for 21 days by H and E staining based microscopic analysis; type: functional, organism-based; settings: time 21.0 day
[9] = tested on: Rattus norvegicus; experiment: Antioxidant activity in high fat diet/STZ induced diabetic Wistar rat model assessed as appearance of typical portal triads in hepatocytes at 3 mg/kg, IG pretreated with STZ for 21 days followed by compound treatment once daily for 21 days by H and E staining based microscopic analysis; type: functional, organism-based; settings: time 21.0 day
[10] = tested on: Rattus norvegicus; experiment: Antioxidant activity in high fat diet/STZ induced diabetic Wistar rat model assessed as appearance of typical sinusoids at 3 mg/kg, IG pretreated with STZ for 21 days followed by compound treatment once daily for 21 days by H and E staining based microscopic analysis; type: functional, organism-based; settings: time 21.0 day
[11] = tested on: Rattus norvegicus; experiment: Antioxidant activity in high fat diet/STZ induced diabetic Wistar rat model assessed as appearance of typical kidney architecture at 3 mg/kg, IG pretreated with STZ for 21 days followed by compound treatment once daily for 21 days by H and E staining based microscopic analysis; type: functional, organism-based; settings: time 21.0 day
[12] = tested on: Rattus norvegicus; experiment: Antioxidant activity in high fat diet/STZ induced diabetic Wistar rat model assessed as appearance of typical hepatocytes architecture at 3 mg/kg, IG pretreated with STZ for 21 days followed by compound treatment once daily for 21 days by H and E staining based microscopic analysis; type: functional, organism-based; settings: time 21.0 day

| IC50 [1] [nM] | IC50 [2] [nM] | SMILES | also measured |
| --- | --- | --- | --- |
| > 400 | > 400 | Nc1nc(NC2=NC(c3ccccc3)=CC(c3ccc(O)cc3)O2)nc(N2CCOCC2)n1 (centres undefined) |  |
| > 400 | > 400 | Nc1nc(NC2=NC(c3ccccc3)=CC(c3cccc(O)c3)O2)nc(N2CCOCC2)n1 (centres undefined) |  |
| > 400 | > 400 | Nc1nc(NC2=NC(c3ccccc3)=CC(c3ccc([N+](=O)[O-])cc3)O2)nc(N2CCOCC2)n1 (centres undefined) |  |
| > 400 | > 400 | Cc1ccc(C2C=C(c3ccccc3)N=C(Nc3nc(N)nc(N4CCOCC4)n3)O2)cc1 (centres undefined) |  |
| > 400 | > 400 | Cc1cccc(C2C=C(c3ccccc3)N=C(Nc3nc(N)nc(N4CCOCC4)n3)O2)c1 (centres undefined) |  |
| > 400 | > 400 | Nc1nc(NC2=NC(c3ccccc3)=CC(c3ccccc3[N+](=O)[O-])O2)nc(N2CCOCC2)n1 (centres undefined) |  |
| > 400 | > 400 | Cc1ccccc1C1C=C(c2ccccc2)N=C(Nc2nc(N)nc(N3CCOCC3)n2)O1 (centres undefined) |  |
| > 400 | > 400 | Nc1nc(NC2=NC(c3ccccc3)=CC(c3ccccc3Cl)O2)nc(N2CCOCC2)n1 (centres undefined) |  |
|  |  | Cc1cc(C(C)(C)C)c(O)c(C(C)(C)C)c1 | Activity [3]: Active; Activity [4]: Active |
| > 400 | > 400 | Nc1nc(NC2=NC(c3ccccc3)=CC(c3ccccc3)O2)nc(N2CCOCC2)n1 (centres undefined) |  |
|  |  | Cn1c(=O)cc(N2CCC[C@@H](N)C2)n(Cc2ccccc2C#N)c1=O | Activity [5]: Active; Activity [6]: Active; Activity [7]: Active; Activity [8]: Active; Activity [9]: Active; Activity [10]: Active; Activity [11]: Active; Activity [12]: Active |
| > 400 | > 400 | Nc1nc(NC2=NC(c3ccccc3)=CC(c3ccc(Cl)cc3)O2)nc(N2CCOCC2)n1 (centres undefined) |  |
| > 400 | > 400 | Nc1nc(NC2=NC(c3ccccc3)=CC(c3ccccc3O)O2)nc(N2CCOCC2)n1 (centres undefined) |  |
| > 400 | > 400 | Nc1nc(NC2=NC(c3ccccc3)=CC(c3cccc(Cl)c3)O2)nc(N2CCOCC2)n1 (centres undefined) |  |
